According to patent US20060256599A1, “Database of electronically profiled cells and methods for generating and using same” (priority 2005, published 2006):

Experiments:
[1] = system: rat primary neonatal explants; conditions: in vitro; from King et al., Genentech paper; cited from earlier work
[2] = system: cells in culture; assay: effect of chemotherapeutic agents on cellular conductance and cell number; type: cell-based; conditions: 100 ng in each ml of media, DMEM + 10% serum, FIG. 6
Protocol: FIG. 6 depicts the effect of chemotherapeutic agents on cellular conductance and cell number.
Cells were seeding at a density of 1.0E+5 in 2 ml of DMEM with 10% FBS. The cells were grown and cultured for 24 hours. On day 2 eight wells were counted in a Coulter type counter after harvesting by trypsinization for initial cell count. Additional wells containing cells were examined to confirm cell viability and health by phase microscopy. The media as then aspirated and wells were filled with DMEM+10% serum (control) or DMEM+10% serum containing various concentrations of chemotherapeutic agent (e.g. Methotrexate.). The dose was 100 ng in each ml of media.

Compound	metabolic activity (heart beats) increased [1] [%]	cell number ([2]; Coulter type counter)	cell conductance [2]
CNC[C@H](O)c1cccc(O)c1 [PE, Phenylephrine]	84		
CN(Cc1cnc2nc(N)nc(N)c2n1)c1ccc(C(=O)N[C@@H](CCC(=O)O)C(=O)O)cc1 [Methotrexate]		decreased cell number	decrease in cell conductance
leukemia inhibitory factor [LIF]	125		
prostaglandin F2alpha [PGF]	54		
